According to doi:10.1101/2023.03.24.534094v2 (biorxiv, 2023):
Like-named read-outs stand apart in the source and are kept apart here.

Assays:
Test in all cases: biochemical
VRK1 = molecular target: T1, VRK1 (Homo sapiens, UniProt Q99986)
T1 sequence (Q99986 1-396): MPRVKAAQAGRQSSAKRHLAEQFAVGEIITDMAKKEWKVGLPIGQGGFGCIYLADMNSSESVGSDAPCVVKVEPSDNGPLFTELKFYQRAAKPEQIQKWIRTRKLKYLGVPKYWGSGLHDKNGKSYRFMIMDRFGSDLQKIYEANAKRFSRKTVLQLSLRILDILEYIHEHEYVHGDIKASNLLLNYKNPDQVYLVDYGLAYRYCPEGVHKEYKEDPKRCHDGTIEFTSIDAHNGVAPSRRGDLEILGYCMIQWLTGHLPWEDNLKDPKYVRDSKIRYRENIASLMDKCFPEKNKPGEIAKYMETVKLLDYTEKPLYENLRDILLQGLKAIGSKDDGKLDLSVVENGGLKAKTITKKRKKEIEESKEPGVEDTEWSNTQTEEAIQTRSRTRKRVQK

DYRK2 = molecular target: T2, DYRK2 (Homo sapiens, UniProt Q92630)
T2 sequence (Q92630 1-601): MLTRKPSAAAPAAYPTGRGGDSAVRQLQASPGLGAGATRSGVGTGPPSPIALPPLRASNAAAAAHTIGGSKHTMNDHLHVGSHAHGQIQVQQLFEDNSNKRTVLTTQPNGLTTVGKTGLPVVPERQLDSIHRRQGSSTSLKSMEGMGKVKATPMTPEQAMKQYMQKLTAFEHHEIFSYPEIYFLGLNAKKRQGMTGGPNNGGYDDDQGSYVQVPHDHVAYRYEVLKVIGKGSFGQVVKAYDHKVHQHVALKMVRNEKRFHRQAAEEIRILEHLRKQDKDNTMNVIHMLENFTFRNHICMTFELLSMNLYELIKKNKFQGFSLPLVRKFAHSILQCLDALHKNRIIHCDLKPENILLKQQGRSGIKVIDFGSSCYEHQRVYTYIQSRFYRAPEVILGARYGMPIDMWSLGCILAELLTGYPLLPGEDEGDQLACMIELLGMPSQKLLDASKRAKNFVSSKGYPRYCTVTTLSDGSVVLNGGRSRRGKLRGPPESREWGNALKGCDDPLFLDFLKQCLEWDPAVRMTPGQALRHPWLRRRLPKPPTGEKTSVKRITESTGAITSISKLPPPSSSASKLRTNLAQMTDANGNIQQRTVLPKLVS

AKT3 = AKT3 (Homo sapiens, UniProt Q9Y243)
MAP3K5 = molecular target: T3, MAP3K5 (Homo sapiens, UniProt Q99683)
T3 sequence (Q99683 1-1374): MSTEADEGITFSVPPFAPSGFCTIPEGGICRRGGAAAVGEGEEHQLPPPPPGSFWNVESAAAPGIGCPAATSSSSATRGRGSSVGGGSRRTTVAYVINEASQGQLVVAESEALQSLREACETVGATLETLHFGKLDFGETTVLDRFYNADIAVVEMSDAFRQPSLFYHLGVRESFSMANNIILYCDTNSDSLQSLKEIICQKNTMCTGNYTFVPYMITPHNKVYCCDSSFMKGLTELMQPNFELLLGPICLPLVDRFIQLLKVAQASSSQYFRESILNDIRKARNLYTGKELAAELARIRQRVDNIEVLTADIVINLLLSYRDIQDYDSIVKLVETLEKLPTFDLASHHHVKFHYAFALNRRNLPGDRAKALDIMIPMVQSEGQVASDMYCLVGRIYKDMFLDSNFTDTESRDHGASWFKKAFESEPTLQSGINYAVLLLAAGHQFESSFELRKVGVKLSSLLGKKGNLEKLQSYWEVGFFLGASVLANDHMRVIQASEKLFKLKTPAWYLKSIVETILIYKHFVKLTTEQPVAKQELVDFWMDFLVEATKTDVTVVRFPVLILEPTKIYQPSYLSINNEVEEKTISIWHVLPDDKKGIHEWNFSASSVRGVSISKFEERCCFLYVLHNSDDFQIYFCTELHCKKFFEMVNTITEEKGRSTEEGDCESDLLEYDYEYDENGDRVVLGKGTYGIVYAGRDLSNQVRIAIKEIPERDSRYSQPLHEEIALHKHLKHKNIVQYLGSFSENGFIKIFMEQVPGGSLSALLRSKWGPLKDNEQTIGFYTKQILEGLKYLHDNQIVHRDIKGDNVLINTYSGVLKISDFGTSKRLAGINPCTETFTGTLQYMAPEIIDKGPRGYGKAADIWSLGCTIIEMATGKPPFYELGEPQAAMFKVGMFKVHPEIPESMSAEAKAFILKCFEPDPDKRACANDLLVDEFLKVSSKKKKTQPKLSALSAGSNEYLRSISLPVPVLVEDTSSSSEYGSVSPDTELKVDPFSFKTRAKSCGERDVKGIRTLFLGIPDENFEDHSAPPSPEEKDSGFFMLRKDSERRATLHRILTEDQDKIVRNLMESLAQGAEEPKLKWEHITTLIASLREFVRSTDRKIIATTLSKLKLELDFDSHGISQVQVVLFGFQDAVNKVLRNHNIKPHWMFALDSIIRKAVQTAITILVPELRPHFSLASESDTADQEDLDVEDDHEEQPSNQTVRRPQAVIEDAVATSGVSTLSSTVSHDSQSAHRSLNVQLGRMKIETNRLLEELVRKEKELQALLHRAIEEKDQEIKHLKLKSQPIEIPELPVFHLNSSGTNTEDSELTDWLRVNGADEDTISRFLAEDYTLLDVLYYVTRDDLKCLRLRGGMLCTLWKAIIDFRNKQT

AKT3, sequence (Q9Y243 whole entry): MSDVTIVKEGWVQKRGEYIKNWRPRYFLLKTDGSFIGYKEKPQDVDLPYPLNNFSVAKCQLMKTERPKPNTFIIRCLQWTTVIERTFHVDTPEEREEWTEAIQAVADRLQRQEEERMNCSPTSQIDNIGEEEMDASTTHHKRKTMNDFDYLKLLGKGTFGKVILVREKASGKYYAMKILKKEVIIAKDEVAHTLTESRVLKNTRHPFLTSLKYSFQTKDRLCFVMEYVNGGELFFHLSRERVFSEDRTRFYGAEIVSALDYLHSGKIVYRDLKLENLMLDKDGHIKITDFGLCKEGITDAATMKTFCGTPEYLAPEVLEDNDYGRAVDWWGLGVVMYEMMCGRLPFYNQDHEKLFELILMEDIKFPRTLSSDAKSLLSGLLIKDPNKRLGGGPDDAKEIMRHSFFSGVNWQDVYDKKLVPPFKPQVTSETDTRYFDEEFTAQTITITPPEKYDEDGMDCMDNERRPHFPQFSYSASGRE

Compound: CNc1ncc2cc(-c3ccc(-c4cccc(C)n4)cc3Cl)c(=O)n(CC3OCC(N)CO3)c2n1 (centres unmarked) [compound 2, G-5555]
- dTm G-5555 (2) (VRK1; 10 µM, binder): -0.1 °C
- dTm G-5555 (2) (DYRK2; 10 µM, binder): -0.1 °C
- dTm G-5555 (2) (AKT3; 10 µM, binder): 1.4 °C
- dTm G-5555 (2) (MAP3K5; 10 µM, binder): 8.9 °C

Compound: CNc1ncc2cc(-c3ccccc3Cl)c(=O)n(CCCCN)c2n1 [compound 4, 8-(4-Aminobutyl)-6-(2-chlorophenyl)-2-(methylamino)pyrido[2,3-d]pyrimidin-7(8H)-one]
- ΔTm at 10 µM (VRK1; read-out: dTm MR21 (4)): -0.4 °C
- ΔTm at 10 µM (DYRK2; read-out: dTm MR21 (4)): 0 °C
- ΔTm at 10 µM (AKT3; read-out: dTm MR21 (4)): 0.7 °C
- ΔTm at 10 µM (MAP3K5; read-out: dTm MR21 (4)): 2.9 °C

Compound: CNc1ncc2cc(-c3cc(F)ccc3F)c(=O)n(CCCCN)c2n1 [compound 5, 8-(4-Aminobutyl)-6-(2,5-difluorophenyl)-2-(methylamino)pyrido[2,3-d]pyrimidin-7(8H)-one]
- ΔTm at 10 µM (VRK1; read-out: dTm MR22 (5)): 0.4 °C
- ΔTm at 10 µM (DYRK2; read-out: dTm MR22 (5)): 0.2 °C
- ΔTm at 10 µM (AKT3; read-out: dTm MR22 (5)): 0.5 °C
- ΔTm at 10 µM (MAP3K5; read-out: dTm MR22 (5)): 1 °C

Compound: CNc1ncc2cc(-c3cc(Br)ccc3Cl)c(=O)n(CCCCN)c2n1 [compound 6, 8-(4-Aminobutyl)-6-(5-bromo-2-chlorophenyl)-2-(methylamino)pyrido[2,3-d]pyrimidin-7(8H)-one]
- ΔTm at 10 µM (VRK1; read-out: dTm 6): 0.3 °C
- ΔTm at 10 µM (DYRK2; read-out: dTm 6): -0.1 °C
- ΔTm at 10 µM (AKT3; read-out: dTm 6): 0.2 °C
- ΔTm at 10 µM (MAP3K5; read-out: dTm 6): 0.9 °C

Compound: CNc1ncc2cc(-c3cc(Br)ccc3Cl)c(=O)n(C[C@H]3OC[C@H](N)CO3)c2n1 [compound 7, 8-(((2r,5r)-5-Amino-1,3-dioxan-2-yl)methyl)-6-(5-bromo-2-chlorophenyl)-2-(methylamino)pyrido[2,3-d]pyrimidin-7(8H)-one]
- ΔTm at 10 µM (VRK1; read-out: dTm 7): 0.5 °C
- ΔTm at 10 µM (DYRK2; read-out: dTm 7): 0 °C
- ΔTm at 10 µM (AKT3; read-out: dTm 7): 0 °C
- ΔTm at 10 µM (MAP3K5; read-out: dTm 7): 0.8 °C
